Structures can show the parent of a compound that is named as a salt.
The compounds below were run against T1, human HPK1 (MAP4K1) (Homo sapiens, UniProt Q92918) (assay: Biochemical assay for activity against HPK1 (ADP-Glo, MBP substrate)). Conditions: recombinant human HPK1 kinase domain, 1 nM enzyme, ADP-Glo luminescence.
T1 construct: Recombinant human HPK1 kinase domain was obtained from ThermoFisher (Cat. #PV6357) and SignalChem (Cat. #M23-11G); purchased ThermoFisher; SignalChem PV6357; M23-11G
T1 sequence (Q92918 17-274 limits assumed): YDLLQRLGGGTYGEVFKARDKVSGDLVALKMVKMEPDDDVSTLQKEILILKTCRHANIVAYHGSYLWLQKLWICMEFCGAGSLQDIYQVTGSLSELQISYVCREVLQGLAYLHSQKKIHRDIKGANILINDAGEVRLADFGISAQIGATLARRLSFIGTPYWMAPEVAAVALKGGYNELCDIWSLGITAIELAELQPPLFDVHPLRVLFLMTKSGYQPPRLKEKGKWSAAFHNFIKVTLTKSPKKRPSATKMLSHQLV
Text: These compounds are made by the synthetic methods described earlier herein. Example 227 Biochemical Assay for Testing Compounds for Activity against HPK1
The enzymatic activity of human HPK1 (MAP4K1) was monitored in a biochemical assay in the presence or absence of compounds, using a peptide substrate (myelin basic protein, MBP), with an ADP-Glo assay kit (Promega, Cat. #V9103). An increase in phosphorylation of the peptide by HPK1 was indicative of its kinase activity.
Recombinant human HPK1 kinase domain was obtained from ThermoFisher (Cat. #PV6357) and SignalChem (Cat. #M23-11G). A 1 nM HPK1 kinase enzyme solution was prepared from the HPK1 stock received from the commercial supplier using an assay buffer containing 50 mM HEPES (4-(2-hydroxyethyl)-1-piperazineethanesulfonic acid) pH 7.5 (Fisher Scientific, Cat. #H1035), 150 mM NaCl (Fisher Scientific, Cat. #50843067), 3 mM TCEP-HCl (Tris(2-carboxyethyl)phosphine hydrochloride; Fisher Scientific, Cat. #PIPG82080), 10 mM MgCl2 (Fisher Scientific, Cat. #AM9530G), 0.005% Tween-20 (Fisher Scientific, Cat. #BP337500) and 0.01% BSA (bovine serum albumin; ThermoFisher, Cat. #15260037), in ultra-pure water. The final concentration of the assay buffer was 770 nM. A 5 mM stock solution of the peptide substrate was prepared using […] MBP (Myelin Basic Protein, Active Motif, Cat. #31314), 10 mM ATP (adenosine 5′-triphosphate; Sigma-Aldrich, Cat. #GE27-2056-01) and of assay buffer.
Test compounds were dissolved in DMSO (dimethyl sulfoxide) at 10 mM and then serial dilutions were prepared using a ViaFlow assist multichannel dispenser (Integra ViaFlo). 20 nL of test compounds at various concentrations were dispensed into a 1536-well assay plate (Corning Cat. #7247) using an Echo Nanoliter dispenser (Labcyte ECHO 550). […] of a 1 nM solution of HPK1 kinase enzyme diluted in assay buffer was added to the compound-containing plate using a Mantis Microliter dispenser (Formulatrix Mantis), covered with a lid, and incubated for 15 minutes at room temperature. 50 nL of a 5 mM stock solution of the peptide substrate (MBP) were added using the Echo Nanoliter dispenser. The plate was covered with a lid, centrifugated at 500 rpm for 1 minute and incubated for 2 hours at room temperature. […] of ADP-Glo reagent A was added using the Mantis Microliter dispenser, centrifugated at 500 rpm for 30 seconds and incubated for 40 minutes at room temperature. […] of ADP-Glo reagent B was added using the Mantis Microliter dispenser, centrifugated at 500 rpm for 30 seconds and incubated for 30 minutes at room temperature. Peptide phosphorylation was measured by luminescence on an Envision plate reader (PerkinElmer).
The HPK1 biochemical IC50 activity levels of the compounds of Examples 1-225 were tested using this assay and are shown in Table 2.

Row | SMILES | IC50 [nM]
1 | COc1cc2c(cc1Nc1ncc3cnn([C@H]4CC[C@@H](C(=O)O)CC4)c3n1)CN(C)CC2 [Example 26, (1s,4s)-4-(6-((6-methoxy-2-methyl-1,2,3,4-tetrahydroisoquinolin-7-yl)amino)-1H-pyrazolo[3,4-d]pyrimidin-1-yl)cyclohexane-1-carboxylic acid] | < 100
2 | COc1cc2c(cc1Nc1ncc3cnn([C@H]4CC[C@@H](C(N)=O)CC4)c3n1)CN(C)CC2 [Example 27, (1s,4s)-4-(6-((6-methoxy-2-methyl-1,2,3,4-tetrahydroisoquinolin-7-yl)amino)-1H-pyrazolo[3,4-d]pyrimidin-1-yl)cyclohexane-1-carboxamide] | < 100
3 | COc1cc2c(cc1Nc1ncc3cnn(C[C@@H]4C[C@@H](O)CN4C(C)=O)c3n1)CN(C)CC2 [Example 130, 1-((2S,4R)-4-hydroxy-2-((6-((6-methoxy-2-methyl-1,2,3,4-tetrahydroisoquinolin-7-yl)amino)-1H-pyrazolo[3,4-d]pyrimidin-1-yl)methyl)pyrrolidin-1-yl)ethan-1-one trifluoroacetate] | < 100
4 | COc1nc2c(cc1Nc1ncc3cnn([C@H]4CC[C@H](CO)CC4)c3n1)CN(C)CC2 [Example 170] | < 100
5 | COc1cc2c(cc1Nc1ncc3cnn([C@H]4C[C@](C)(CO)C4)c3n1)CN(C)CC2 [Example 76, trans-[3-[6-[(6-methoxy-2-methyl-3,4-dihydro-1H-isoquinolin-7-yl)amino]pyrazolo[3,4-d]pyrimidin-1-yl]-1-methyl-cyclobutyl]methanol] | < 100
6 | COc1cc2c(cc1Nc1ncc3cnn([C@H]4CC[C@H](C(N)=O)CC4)c3n1)CN(C)CC2 [Example 38, (1r,4r)-4-(6-((6-methoxy-2-methyl-1,2,3,4-tetrahydroisoquinolin-7-yl)amino)-1H-pyrazolo[3,4-d]pyrimidin-1-yl)cyclohexane-1-carboxamide] | < 100
7 | COc1cc2c(cc1Nc1ncc3cnn(C[C@@H]4[C@@H](C)[C@H](F)CN4C(C)=O)c3n1)CN(C)CC2 [Example 191, 1-((2S,3R,4S)-4-fluoro-2-((6-((6-methoxy-2-methyl-1,2,3,4-tetrahydroisoquinolin-7-yl)amino)-1H-pyrazolo[3,4-d]pyrimidin-1-yl)methyl)-3-methylpyrrolidin-1-yl)ethan-1-one] | < 100
8 | CN1CCc2ccc(Nc3ncc4cnn(C[C@@H]5CCC[C@H]5C(=O)O)c4n3)cc2C1 (racemic) [Example 161, Rac-trans-2-[[6-[(2-methyl-3,4-dihydro-1H-isoquinolin-7-yl)amino]pyrazolo[3,4-d]pyrimidin-1-yl]methyl]cyclopentanecarboxylic Acid] | < 100
9 | CCN1CCc2cc(OC)c(Nc3ncc4cnn([C@H]5CC[C@H](CO)CC5)c4n3)cc2C1 [Example 168, [4-[6-[(2-ethyl-6-methoxy-3,4-dihydro-1H-isoquinolin-7-yl)amino]pyrazolo[3,4-d]pyrimidin-1-yl]cyclohexyl]methanol] | < 100
10 | COc1nc2c(cc1Nc1ncc3cnn(C[C@@H]4CC[C@@H](C)N4C(C)=O)c3n1)CN(C)CC2 [Example 173, 1-[(2S,5R)-2-[[6-[(2-methoxy-6-methyl-7,8-dihydro-5H-1,6-naphthyridin-3-yl)amino]pyrazolo[3,4-d]pyrimidin-1-yl]methyl]-5-methyl-pyrrolidin-1-yl]ethenone Methanesulfonic Acid] | < 100
11 | COc1cc2c(cc1Nc1ncc3cnn(C[C@H]4[C@H](C)CCN4C(C)=O)c3n1)CN(C)CC2 (single isomer, unassigned) [Example 147] | 100 to 250
12 | COc1cc2c(cc1Nc1ncc3cnn(C[C@H]4CCCCN4C(C)=O)c3n1)CN(C)CC2 [Example 211, 1-[(2R)-2-[[6-[(6-methoxy-2-methyl-3,4-dihydro-1H-isoquinolin-7-yl)amino]pyrazolo[3,4-d]pyrimidin-1-yl]methyl]-1-piperidyl]ethenone hydrochloride] | 100 to 250
13 | COC(=O)N[C@H]1CC[C@H](n2ncc3cnc(Nc4cc5c(cc4OC)CCN(C)C5)nc32)CC1 [Example 80, trans-methyl N-[4-[6-[(6-methoxy-2-methyl-3,4-dihydro-1H-isoquinolin-7-yl)amino]pyrazolo[3,4-d]pyrimidin-1-yl]cyclohexyl]carbamate] | < 100
14 | CCN1CCc2cc(OC)c(Nc3ncc4cnn([C@H]5CC[C@H](O)CC5)c4n3)cc2C1 [Example 155, trans-4-(6-((2-ethyl-6-methoxy-1,2,3,4-tetrahydroisoquinolin-7-yl)amino)-1H-pyrazolo[3,4-d]pyrimidin-1-yl)cyclohexan-1-ol] | < 100

Continued, values first:

Row | IC50 [nM] | SMILES
15 | < 100 | COc1cc2c(cc1Nc1ncc3c(C)nn([C@H]4CC[C@@H](CO)CC4)c3n1)CN(C)CC2 [Example 78, cis-[4-[6-[(6-methoxy-2-methyl-3,4-dihydro-1H-isoquinolin-7-yl)amino]-3-methyl-pyrazolo[3,4-d]pyrimidin-1-yl]cyclohexyl]methanol]
16 | 100 to 250 | COc1cc2c(cc1Nc1ncc3cnn(C4CCN(C(=O)C(F)(F)F)CC4)c3n1)CN(C)CC2 [Example 107, 2,2,2-trifluoro-1-(4-(6-((6-methoxy-2-methyl-1,2,3,4-tetrahydroisoquinolin-7-yl)amino)-1H-pyrazolo[3,4-d]pyrimidin-1-yl)piperidin-1-yl)ethan-1-one trifluroacetate]
17 | < 100 | COc1cc2c(cc1Nc1ncc3cnn([C@H]4C[C@](C)(C(=O)OC)C4)c3n1)CN(C)CC2 [Example 70, trans-methyl 3-[6-[(6-methoxy-2-methyl-3,4-dihydro-1H-isoquinolin-7-yl)amino]pyrazolo[3,4-d]pyrimidin-1-yl]-1-methyl-cyclobutanecarboxylate]
18 | < 100 | COc1cc2c(cc1Nc1ncc3cnn([C@@H]4C[C@@H]5C[C@H]4N(C(C)=O)C5)c3n1)CN(C)CC2 (relative stereo) [Example 193, rel-1-((1R,4S,6R)-6-(6-((6-methoxy-2-methyl-1,2,3,4-tetrahydroisoquinolin-7-yl)amino)-1H-pyrazolo[3,4-d]pyrimidin-1-yl]-2-azabicyclo[2.2.1]heptan-2-yl)ethan-1-one]
19 | < 100 | COc1cc2c(cc1Nc1ncc3cnn(C4CCCN(C(C)=O)C4)c3n1)CN(C)CC2 (centres unmarked) [Example 109, 1-(3-(6-((6-methoxy-2-methyl-1,2,3,4-tetrahydroisoquinolin-7-yl)amino)-1H-pyrazolo[3,4-d]pyrimidin-1-yl)piperidin-1-yl)ethan-1-one]
20 | < 100 | COc1cc2c(cc1Nc1ncc3cnn(C[C@H]4CN(S(C)(=O)=O)CCO4)c3n1)CN(C)CC2 [Example 128, (S)-6-methoxy-2-methyl-N-(1-((4-(methylsulfonyl)morpholin-2-yl)methyl)-1H-pyrazolo[3,4-d]pyrimidin-6-yl)-1,2,3,4-tetrahydroisoquinolin-7-amine trifluoroacetate]
21 | < 100 | CN1CCc2ccc(Nc3ncc4cnn([C@H]5CC[C@H](C(=O)O)CC5)c4n3)cc2C1 [Example 32, (1r,4r)-4-(6-((2-methyl-1,2,3,4-tetrahydroisoquinolin-7-yl)amino)-1H-pyrazolo[3,4-d]pyrimidin-1-yl)cyclohexane-1-carboxylic acid]
22 | < 100 | COc1cc2c(cc1Nc1ncc3cnn(C4CCC(F)(F)CC4)c3n1)CN(C)CC2 [Example 192, N-[1-(4,4-difluorocyclohexyl)pyrazolo[3,4-d]pyrimidin-6-yl]-6-methoxy-2-methyl-3,4-dihydro-1H-isoquinolin-7-amine Hydrochloride]
23 | < 100 | CN1CCc2ccc(Nc3ncc4cnn([C@@H]5CCOC5)c4n3)cc2C1 [Example 20, (R)-2-methyl-N-(1-(tetrahydrofuran-3-yl)-1H-pyrazolo[3,4-d]pyrimidin-6-yl)-1,2,3,4-tetrahydroisoquinolin-7-amine]

From patent US11918582B2 (RAPT Therapeutics, Inc., priority 2021, dated 2024)
